According to patent publication US20090131391A1, “INHIBITOR FOR DIFFERENTIATION OF HEMATOPOIETIC PRECURSOR CELLS” (OOO "MBF", priority 2006, published 2009):

Tests used:
[1] = system: LLC (Lewis lung carcinoma); experiment: Lewis lung carcinoma growth and metastasis with Platidiam (cisplatin) treatment; assay type: in vivo, C57B1/6 mice
[2] = system: Lewis lung carcinoma (LLC); experiment: Lewis lung carcinoma growth index and lung metastases with localized irradiation; assay type: in vivo, mice; conditions: for Average number of lung metastases: day 21, surviving animals
Description: The number of lung metastases was assayed on day 21 in surviving animals.
As in the previous series, tumor cells were injected subcutaneously into right hind leg at 2.0×10^6 cells/mouse (total of 40 mice).

[3] = system: colony-forming cells in the spleen, CFC-S; experiment: Exogenous spleen colony assay (CFC-S) after agent and gamma-irradiation of donor mice; assay type: in vivo
Description: Assay of effect of various doses of ionizing radiation on hematopoiesis. 950 female mice of two lines—(CBA×C 57 B 1/6) F1 and (DBA×C 57B1/6) F1—were used in this study. Radiation was administered using a radiation therapy machine “Luch-1” utilizing gamma-rays ^60Co at 0.9 Gy/min. 9-phenyl-symmetric-octahydroselenoxanthene was administered orally in doses 1.0, 5.0, 10 and 20 mg/kg in 0.2 ml of oil. Agent was administered 1, 3 or 7 days prior to radiation treatment of 1.5 Gy; bone marrow was then extracted from donor mice, and cell suspension was injected into lethally irradiated (8 Gy) recipient mice of the same line. Colony-forming activity was assayed by number of exogenous spleen colonies when mice were sacrificed on day 9.
300 female mice of line (CBA×C57B1/6) F1 were used in the experiment. Radiation was administered using a radiation therapy machine “Luch-1” utilizing gamma-rays ^60Co at 0.9 Gy/min. 9-phenyl-symmetric-octahydroselenoxanthene was administered orally in doses 1.0, 5.0, 10 and 20 mg/kg in 0.2 ml of oil 7 days prior to radiation treatment at following doses: 1.5, 2.0, 3.0 and 5.0 Gy. Bone marrow was extracted 10-15 minutes after the treatment and the cell suspension was injected into lethally irradiated (8 Gy) recipient mice. Colony-forming activity was assayed by number of exogenous spleen colonies when mice were sacrificed on day 9.

CD34+ cells = experiment: Flow cytometry of CD34+ cells in bone marrow and peripheral blood; assay type: in vivo, mouse
Description: The effects of the proposed agent (9-phenyl-symmetric-octahydroselenoxanthene) on mouse hematopoiesis were assayed by flow cytometry. Relative number of CD34+ cells and the density of the antigen were assayed in peripheral blood cells (80,000 cells per sample) and bone marrow cells (40,000 cells per sample). As reported earlier, administration of the proposed agent has no effect on relative number of less differentiated stem cells (CD34+).

[4] = system: polychromatophil mouse erythrocytes (line C57 B1); experiment: Micronuclei in peripheral polychromatophil erythrocytes after electromagnetic irradiation; assay type: in vivo
Description: Protective properties of 9-phenyl-symmetric-octahydroselenoxanthene against non-ionizing radiation were examined by studying formation of micronuclei in polychromatophil mouse erythrocytes (line C57 B1). Micronuclei of the interphase nucleus are acentric chromosome fragments. Animals were exposed to electromagnetic radiation in millimeter wavelength range, frequency 39.5 GHz, and wavelength 7.5 mm for 1 hour. Flux density was approximately 3 microW/cm^2, which is 300 fold less than levels posing danger of overheating due to field energy absorption to a biological object.
5 mg/kg of 9-phenyl-symmetric-octahydroselenoxanthene was administered to group 1 (n=5) orally in 0.2 ml of oil 7 days prior to irradiation. Group 2 (n=5) received 0.2 ml of oil only and untreated mice were used as controls. Mice were sacrificed 1 day after irradiation and number of micronuclei was assayed in peripheral polychromatophil erythrocytes (150,000 cells per sample).

[5] = Inhibitor + localized irradiation
[6] = concurrent use with localized irradiation
[7] = Agent administered 1 day prior to analysis, no irradiation
[8] = Agent administered 7 days prior to analysis + irradiation, 1.5 Gy
[9] = Agent administered 7 days prior to analysis, no irradiation

Molecule: N.N.[Cl][Pt][Cl] [Platidiam (cisplatin), cisplatin]
- Avg number of lung metastases M ± m ([1]; C57B1/6 mice with LLC): 6.2 ± 0.7
- Tumor mass, g M ± m ([1]; C57B1/6 mice with LLC): 4.5 ± 0.5 g
- Tumor volume, sm^3 M ± m ([1]; C57B1/6 mice with LLC): 4.6 ± 0.6 sm^3
- anti-tumor effect (tumor mass and lung metastases) ([1]; C57B1/6 mice with LLC): slight but consistent anti-tumor effect

Molecule: 9-phenyl-symmetric-octahydroselenoxanthene
- effect on tumor growth and number of lung metastases ([1]; administered 30 minutes prior to chemotherapy with Platidiam (cisplatin)): did not exhibit any significant effect
- Growth index [2, 5]: 4.6 ± 0.8
- Growth index ([2]; Inhibitor + localized irradiation, 1 day): 1
- Growth index ([2]; Inhibitor + localized irradiation, 4 days): 1.4 ± 0.1
- Growth index ([2]; Inhibitor + localized irradiation, 6 days): 1.7 ± 0.2
- Growth index ([2]; Inhibitor + localized irradiation, 8 days): 1.84 ± 0.3
- Growth index ([2]; Inhibitor + localized irradiation, 11 days): 2.65 ± 0.6
- Average number of lung metastases [2, 5]: 13.4 ± 1.8
- Growth index ([2]; Inhibitor alone): 7.7 ± 1.7
- Growth index ([2]; Inhibitor alone, 1 day): 1
- Growth index ([2]; Inhibitor alone, 4 days): 1.64 ± 0.1
- Growth index ([2]; Inhibitor alone, 6 days): 3.3 ± 0.25
- Growth index ([2]; Inhibitor alone, 8 days): 3.9 ± 0.7
- Growth index ([2]; Inhibitor alone, 11 days): 5.3 ± 0.7
- Average number of lung metastases ([2]; Inhibitor alone): 33.5 ± 2.5
- growth indexes of agent alone versus agent + irradiation ([2]; combination with irradiation): not significantly different
- effect on metastasis [2, 6]: does not significantly increase metastasis
- protection of tumor cells from effects of radiation [2, 6]: does not protect the tumor cells from effects of radiation
- effect on tumor growth ([2]; inhibitor alone vs control): does not affect tumor growth
- influence on metastatic processes ([2]; non-irradiated and irradiated tumor-bearing mice, day 21): does not influence metastatic processes significantly
- cell survival compared with the untreated control ([3]; 5.0 mg/kg 7 days prior, 1.5 Gy): not significantly different
- Cell survival relative to the irradiated control ([3]; 5.0 mg/kg 7 days prior, all radiation doses excluding 1.5 Gy (2.0, 3.0, 5.0 Gy)): 2 fold
- effect on CFC-S number in donor mice ([3]; 5.0 mg/kg of the agent alone at various time points prior to bone marrow extraction): no effect
- Number of colonies formed per 10^5 of bone marrow cells, M ± m ([3]; 5 mg/kg orally, 1 day prior to irradiation 1.5 Gy): 6.4 ± 0.5 per 10^5 of bone marrow cells
- Number of colonies formed per 10^5 of bone marrow cells, M ± m ([3]; 5 mg/kg orally, 1 day prior, no irradiation): 12.5 ± 0.6 per 10^5 of bone marrow cells
- Number of colonies formed per 10^5 of bone marrow cells, M ± m ([3]; 5 mg/kg orally, 3 days prior to irradiation 1.5 Gy): 9.1 ± 0.5 per 10^5 of bone marrow cells
- Number of colonies formed per 10^5 of bone marrow cells, M ± m ([3]; 5 mg/kg orally, 3 days prior, no irradiation): 10.7 ± 0.4 per 10^5 of bone marrow cells
- Number of colonies formed per 10^5 of bone marrow cells, M ± m ([3]; 5 mg/kg orally, 7 days prior to irradiation 1.5 Gy (Table 1)): 12.7 ± 0.7 per 10^5 of bone marrow cells
- Number of colonies formed per 10^5 of bone marrow cells, M ± m ([3]; 5 mg/kg orally, 7 days prior, no irradiation): 11.1 ± 0.7 per 10^5 of bone marrow cells
- persistence of the CFC-S adaptive response ([3]; 5.0 mg/kg, 1.5 Gy): 7 days
- increase in CFC-S compared to the irradiated control ([3]; 5.0 mg/kg, 1 day prior to 1.5 Gy (minimal effect)): 2 fold
- decrease of the effects of radiation ([3]; 5.0 mg/kg, 7 days prior to 1.5 Gy (maximal effect)): 3 fold
- Number of colonies formed per 10^5 of bone marrow cells, M ± m ([3]; 5 mg/kg, 7 days prior to radiation dose 1.5 Gy (Table 2)): 9.2 ± 0.2 per 10^5 of bone marrow cells
- Number of colonies formed per 10^5 of bone marrow cells, M ± m ([3]; 5 mg/kg, 7 days prior to radiation dose 2.0 Gy): 3.6 ± 0.3 per 10^5 of bone marrow cells
- Number of colonies formed per 10^5 of bone marrow cells, M ± m ([3]; 5 mg/kg, 7 days prior to radiation dose 3.0 Gy): 2.1 ± 0.1 per 10^5 of bone marrow cells
- Number of colonies formed per 10^5 of bone marrow cells, M ± m ([3]; 5 mg/kg, 7 days prior to radiation dose 5.0 Gy): 0.6 ± 0.06 per 10^5 of bone marrow cells
- Total CD34+ cells in bone marrow, 10^7, Mean (CD34+ cells; Agent administered 1 day prior to analysis + irradiation, 1.5 Gy): 2.1 10^7
- Total CD34+ cells in bone marrow, 10^7, Mean (CD34+ cells; [7]): 4.0 10^7
- Total CD34+ cells per 1 ml of peripheral blood, 10^3, Mean (CD34+ cells; [7]): 6.8 10^3
- Total CD34+ cells in bone marrow, 10^7, Mean (CD34+ cells; [8]): 1.0 10^7
- Total CD34+ cells per 1 ml of peripheral blood, 10^3, Mean (CD34+ cells; [8]): 3.8 10^3
- Total CD34+ cells in bone marrow, 10^7, Mean (CD34+ cells; [9]): 4.0 10^7
- Total CD34+ cells per 1 ml of peripheral blood, 10^3, Mean (CD34+ cells; [9]): 8.0 10^3
- number of more differentiated progenitors (CD34+ cells; blood cells, after 7 days): decreases
- portion of CD34+ cells on the blood (CD34+ cells; blood cells, three experiments): does not change
- density of CD34 antigen on the cell surface (CD34+ cells; by day 7 after the agent administration, p<0.05): increases
- effect on relative number of less differentiated stem cells (CD34+) (CD34+ cells; flow cytometry): no effect
- effect on differentiation of progenitor cells (CD34+ cells; peripheral blood and bone marrow composition after irradiation): blocks differentiation of progenitor cells of the granulocyte/macrophage lineage
- Frequency of micronuclei-containing polychromatophil erythrocytes × 10^3 ([4]; 5 mg/kg orally 7 days prior to electromagnetic irradiation 39.5 GHz, 1 hour, assayed 1 day after irradiation): 6.0 ± 2.10 × 10^3
- protection against non-ionizing radiation ([4]; electromagnetic irradiation): confers protection
